Measurements from ChEMBL document CHEMBL4402608 (J Med Chem, 2020).
pKi: −log10 of the molar value.

Experiments:
Histamine H2 receptor = Histamine H2 receptor (Homo sapiens, UniProt P25021); assay: Displacement of [125I]-Iodo-aminopotentidine from human histamine H2 receptor expressed in stable HEK cell membranes at 10 uM after 90 mins by microbeta scintillation counting method relative to control; details: probe [125I]-Iodo-aminopotentidine
[1] = biological target: Alpha-2B adrenergic receptor (Homo sapiens, UniProt P18089); assay: Displacement of [3H]-rauwolscine from recombinant human alpha2B adrenergic receptor transiently expressed in HEKT cell membranes at 10 uM measured after 90 mins by microbeta scintillation counting method relative to control; details: probe [3H]-rauwolscine
muscarinic M5 receptor = muscarinic M5 receptor (Homo sapiens, UniProt P08912); assay: Displacement of [3H]-QNB/[3H]-NMS from human muscarinic M5 receptor expressed in stable CHO cell membranes at 10 uM after 90 mins by microbeta scintillation counting method relative to control; details: probe [3H]-QNB/[3H]-NMS
muscarinic M3 receptor = muscarinic M3 receptor (Homo sapiens, UniProt P20309); assay: Displacement of [3H]-QNB/[3H]-NMS from human muscarinic M3 receptor expressed in stable CHO cell membranes at 10 uM after 90 mins by microbeta scintillation counting method relative to control; details: probe [3H]-QNB/[3H]-NMS
5HT2A receptor = 5HT2A receptor (Homo sapiens, UniProt P28223); assay: Displacement of [3H]-Ketanserin from 5HT2A receptor (unknown origin) at 10 uM measured after 90 mins by microbeta scintillation counting method relative to control; details: probe [3H]-Ketanserin
mu opioid receptor (MOR) = mu opioid receptor (MOR) (Homo sapiens, UniProt P35372); assay: Displacement of [3H]-DAMGO from recombinant human MOR stably expressed in HEK cell membranes at 10 uM measured after 90 mins by microbeta scintillation counting method relative to control; details: HEK cell membranes stably expressing recombinant human MOR, probe [3H]-DAMGO
[2] = biological target: T1, Alpha-2C adrenergic receptor (Homo sapiens, UniProt P18825); assay: Displacement of [3H]-rauwolscine from recombinant human alpha2C adrenergic receptor stably expressed in MDCK cell membranes at 10 uM measured after 90 mins by microbeta scintillation counting method relative to control; details: probe [3H]-rauwolscine
T1 sequence (P18825 whole entry): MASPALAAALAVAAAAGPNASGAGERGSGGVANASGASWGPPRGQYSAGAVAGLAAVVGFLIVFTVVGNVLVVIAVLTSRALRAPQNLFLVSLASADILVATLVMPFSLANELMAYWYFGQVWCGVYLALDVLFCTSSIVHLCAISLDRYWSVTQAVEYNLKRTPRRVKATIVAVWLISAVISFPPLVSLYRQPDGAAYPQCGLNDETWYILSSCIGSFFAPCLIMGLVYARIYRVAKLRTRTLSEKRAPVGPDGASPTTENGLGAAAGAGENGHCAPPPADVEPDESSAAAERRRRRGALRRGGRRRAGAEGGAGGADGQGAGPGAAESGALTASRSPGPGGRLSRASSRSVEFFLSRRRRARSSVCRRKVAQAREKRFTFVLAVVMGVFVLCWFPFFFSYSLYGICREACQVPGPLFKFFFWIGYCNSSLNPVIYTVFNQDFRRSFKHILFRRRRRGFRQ

[3] = biological target: 5-hydroxytryptamine receptor 2B (Homo sapiens, UniProt P41595); assay: Displacement of [3H]-LSD from recombinant human 5HT2B receptor stably expressed in HEK cell membranes measured after 90 mins by microbeta scintillation counting method
[4] = biological target: T2, Alpha-1D adrenergic receptor (Homo sapiens, UniProt P25100); assay: Displacement of [3H]-prazosin from recombinant human alpha1D adrenergic receptor at 10 uM measured after 90 mins by microbeta scintillation counting method relative to control; details: probe [3H]-prazosin
T2 sequence (P25100 whole entry): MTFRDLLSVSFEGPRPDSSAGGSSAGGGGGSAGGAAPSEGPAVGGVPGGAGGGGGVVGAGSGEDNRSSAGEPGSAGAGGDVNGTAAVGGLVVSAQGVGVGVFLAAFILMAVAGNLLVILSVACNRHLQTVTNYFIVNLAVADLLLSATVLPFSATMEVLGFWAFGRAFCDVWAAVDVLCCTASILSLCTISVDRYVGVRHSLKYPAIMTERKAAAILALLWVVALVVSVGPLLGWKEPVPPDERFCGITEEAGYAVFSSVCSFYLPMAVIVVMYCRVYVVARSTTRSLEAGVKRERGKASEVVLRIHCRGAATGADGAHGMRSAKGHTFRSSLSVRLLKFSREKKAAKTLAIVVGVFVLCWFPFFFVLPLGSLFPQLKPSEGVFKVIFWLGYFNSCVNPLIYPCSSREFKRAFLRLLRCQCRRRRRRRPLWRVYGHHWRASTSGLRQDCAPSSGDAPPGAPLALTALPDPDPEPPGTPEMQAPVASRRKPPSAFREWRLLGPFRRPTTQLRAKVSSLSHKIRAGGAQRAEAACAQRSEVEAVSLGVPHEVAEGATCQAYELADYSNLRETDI

[5] = biological target: 5-hydroxytryptamine receptor 2C (Homo sapiens) (UniProt P28335); assay: Displacement of [3H]-Mesulergine from recombinant human 5HT2C receptor expressed in HEK cell membranes at 10 uM measured after 90 mins by microbeta scintillation counting method relative to control; details: probe [3H]-Mesulergine
[6] = biological target: kappa opioid receptor (KOR) (Homo sapiens, UniProt P41145); assay: Displacement of [3H]-U69593 from KOR (unknown origin) at 10 uM measured after 90 mins by microbeta scintillation counting method relative to control; details: probe [3H]-U69593
sigma1 receptor = sigma1 receptor (Homo sapiens, UniProt Q99720); assay: Displacement of [3H]-pentazocine from sigma1 receptor (unknown origin) at 10 uM after 90 mins by microbeta scintillation counting method relative to control; details: probe [3H]-pentazocine
5HT5A receptor = 5HT5A receptor (Homo sapiens, UniProt P47898); assay: Displacement of [3H]-LSD from recombinant human 5HT5A receptor stably expressed in Flp-In CHO cell membranes at 10 uM measured after 90 mins by microbeta scintillation counting method relative to control; details: probe [3H]-LSD
[7] = biological target: 5-hydroxytryptamine receptor 1A (Homo sapiens, UniProt P08908); assay: Displacement of [3H]-Way100635 from recombinant human 5HT1A receptor stably expressed in CHO cell membranes measured after 90 mins by microbeta scintillation counting method
[8] = biological target: dopamine transporter (DAT) (Homo sapiens, UniProt Q01959); assay: Displacement of [3H]-Win35428 from human DAT expressed in stable HEK cell membranes at 10 uM after 90 mins by microbeta scintillation counting method relative to control; details: stable HEK cell membranes expressing human DAT, probe [3H]-Win35428
5HT1D receptor = 5HT1D receptor (Homo sapiens, UniProt P28221); assay: Displacement of [3H]5-CT from recombinant human 5HT1D receptor transiently expressed in HEKT cell membranes at 10 uM measured after 90 mins by microbeta scintillation counting method relative to control; details: probe [3H]5-CT
[9] = biological target: T2, Alpha-1D adrenergic receptor; assay: Displacement of [3H]-prazosin from recombinant human alpha1D adrenergic receptor measured after 90 mins by microbeta scintillation counting method

Compound	inhibition at […], 10 µM (Histamine H2 receptor) [%]	inhibition at […], 10 µM [1] [%]	inhibition at […], 10 µM (muscarinic M5 receptor) [%]	inhibition at […], 10 µM (muscarinic M3 receptor) [%]	inhibition at […], 10 µM (5HT2A receptor) [%]	inhibition at […], 10 µM (mu opioid receptor (MOR)) [%]	inhibition at […], 10 µM [2] [%]	pKi ([3]; read-out: Ki)	inhibition at […], 10 µM [4] [%]	inhibition at […], 10 µM [5] [%]	inhibition at […], 10 µM [6] [%]	inhibition at […], 10 µM (sigma1 receptor) [%]	inhibition at […], 10 µM (5HT5A receptor) [%]	pKi [7]	inhibition at […], 10 µM [8] [%]	inhibition at […], 10 µM (5HT1D receptor) [%]	pKi ([9]; read-out: Ki)	Ki [3]	Ki [9]
CCCN(CC[C@]1(O)C[C@H](NC(=O)c2ccc3ccccc3c2)C1)[C@H]1CCc2nc(N)sc2C1	> 50	< 50	> 50	< 50	> 50	> 50	< 50	5.93	> 50	> 50	> 50	> 50	< 50	6.15	> 50	< 50	5.93		
CCCN[C@H]1CCc2nc(N)sc2C1 [PRAMIPEXOLE]	> 50	> 50	< 50	> 50	< 50	< 50	> 50		< 50	< 50	< 50	> 50	> 50	5.19	< 50	> 50		Not Active	Not Active
